US6737383B1, “Herbicidal oxadiazolidines” (priority 1999, dated 2004)

Tests used:
bedstraw = assay: Test B pre/postemergence bedstraw; type: in vivo, Galium aparine
Outline: (§1)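 Response is a visual 0-to-10 score relative to untreated plants, where 0 means no effect and 10 means complete control, taken twelve to sixteen days after application. Treatments went onto soil at planting and onto foliage of 1- to 4-leaf plants, using a surfactant-containing non-phytotoxic solvent.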

blackgrass = assay: Test B pre/postemergence blackgrass; type: in vivo, Alopecurus myosuroides
Outline: as §1

surinam grass = assay: Test B pre/postemergence surinam grass; type: in vivo, Brachiaria decumbens
Outline: as §1

cocklebur = assay: Test B pre/postemergence cocklebur; type: in vivo, Xanthium strumarium
Outline: as §1

corn = assay: Test B pre/postemergence corn; type: in vivo, Zea mays
Outline: as §1

crabgrass = assay: Test B pre/postemergence crabgrass; type: in vivo, Digitaria sanguinalis
Outline: as §1

soybean = assay: Test B pre/postemergence soybean; type: in vivo, Glycine max
Outline: as §1

sugar beet = assay: Test B pre/postemergence sugar beet; type: in vivo, Beta vulgaris
Outline: as §1

velvetleaf = assay: Test B pre/postemergence velvetleaf; type: in vivo, Abutilon theophrasti
Outline: as §1

wheat = assay: Test B pre/postemergence wheat; type: in vivo, Triticum aestivum
Outline: as §1

wild oat = assay: Test B pre/postemergence wild oat; type: in vivo, Avena fatua
Outline: as §1

purple nutsedge = assay: Test B pre/postemergence purple nutsedge; type: in vivo, Cyperus rotundus
Outline: as §1

rice = assay: Test B flood test rice; type: in vivo, Oryza sativa
Outline: (§2)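 Read-out is a visual response score from 0 (no effect) to 10 (complete control), assigned by comparison with untreated controls. Treatment was applied at the 2-leaf stage, and plants stayed in the greenhouse for twelve to sixteen days before scoring.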

smallflower flatsedge = assay: Test B flood test smallflower flatsedge; type: in vivo, Cyperus difformis
Outline: as §2

duck salad = assay: Test B flood test duck salad; type: in vivo, Heteranthera limosa
Outline: as §2

bamyardgrass = assay: Test B flood test barnyardgrass; type: in vivo, Echinochloa crus-galli
Outline: as §2

[1] = Preemergence, Rate 62 g/ha, scale of 0 to 10 where 0 is no effect and 10 is complete control
[2] = Preemergence, Rate 250 g/ha, scale of 0 to 10 where 0 is no effect and 10 is complete control
[3] = Preemergence, Rate 500 g/ha, scale of 0 to 10 where 0 is no effect and 10 is complete control
[4] = Rate 62 g/ha, Postemergence, scale of 0 to 10 where 0 is no effect and 10 is complete control
[5] = Rate 125 g/ha, Postemergence, scale of 0 to 10 where 0 is no effect and 10 is complete control
[6] = Rate 125 g/ha, Preemergence, scale of 0 to 10 where 0 is no effect and 10 is complete control
[7] = Rate 250 g/ha, Postemergence, scale of 0 to 10 where 0 is no effect and 10 is complete control
[8] = Rate 500 g/ha, Postemergence, scale 0 to 10, 0 no effect, 10 complete control
[9] = Rate 62 g/ha, headed Pre-emergence (flood test species), scale 0 to 10 (0 no effect, 10 complete control)
[10] = Rate 125 g/ha, Pre-emergence, flood test species, scale 0 to 10 where 0 is no effect and 10 is complete control
[11] = Rate 250 g/ha, Pre-emergence, flood-test species, scale 0 to 10, 0 is no effect, 10 is complete control
[12] = Rate 500 g/ha, Pre-emergence, flood test species, scale 0 to 10 (0 no effect, 10 complete control)

CC(C)N(C(=O)n1oc(=O)n(C2CCCC2)c1=O)c1ccc(F)cc1 [Compound 271]
Bedstraw plant response rating (bedstraw; [1]): 3 | Bedstraw plant response rating (bedstraw; [2]): 10 | Plant response rating, Bedstraw (bedstraw; [3]): 10 | Bedstraw plant response rating (bedstraw; [4]): 4 | Bedstraw plant response rating (bedstraw; [5]): 6 | Bedstraw plant response rating (bedstraw; [6]): 10 | Plant response rating, Bedstraw (bedstraw; [7]): 8 | Bedstraw plant response rating (bedstraw; [8]): 8 | Blackgrass plant response rating (blackgrass; [1]): 8 | Blackgrass plant response rating (blackgrass; [2]): 10 | Plant response rating, Blackgrass (blackgrass; [3]): 10 | Blackgrass plant response rating (blackgrass; [4]): 3 | Blackgrass plant response rating (blackgrass; [5]): 4 | Blackgrass plant response rating (blackgrass; [6]): 9 | Plant response rating, Blackgrass (blackgrass; [7]): 8 | Blackgrass plant response rating (blackgrass; [8]): 8 | B. signalgrass plant response rating (surinam grass; [1]): 8 | B. signalgrass plant response rating (surinam grass; [2]): 8 | Plant response rating, B. signalgrass (surinam grass; [3]): 10 | B. signalgrass plant response rating (surinam grass; [4]): 0 | B. signalgrass plant response rating (surinam grass; [5]): 0 | B. signalgrass plant response rating (surinam grass; [6]): 8 | Plant response rating, B. signalgrass (surinam grass; [7]): 2 | B. signalgrass plant response rating (surinam grass; [8]): 5 | Cocklebur plant response rating (cocklebur; [1]): 0 | Cocklebur plant response rating (cocklebur; [2]): 0 | Plant response rating, Cocklebur (cocklebur; [3]): 4 | Cocklebur plant response rating (cocklebur; [4]): 0 | Cocklebur plant response rating (cocklebur; [5]): 0 | Cocklebur plant response rating (cocklebur; [6]): 0 | Plant response rating, Cocklebur (cocklebur; [7]): 1 | Cocklebur plant response rating (cocklebur; [8]): 4 | Corn plant response rating (corn; [1]): 0 | Corn plant response rating (corn; [2]): 0 | Plant response rating, Corn (corn; [3]): 3 | Corn plant response rating (corn; [4]): 0 | Corn plant response rating (corn; [5]): 0 | Corn plant response rating (corn; [6]): 0 | Plant response rating, Corn (corn; [7]): 0 | Corn plant response rating (corn; [8]): 0 | Crabgrass plant response rating (crabgrass; [1]): 3 | Crabgrass plant response rating (crabgrass; [2]): 7 | Plant response rating, Crabgrass (crabgrass; [3]): 8 | Crabgrass plant response rating (crabgrass; [5]): 1 | Crabgrass plant response rating (crabgrass; [6]): 5 | Plant response rating, Crabgrass (crabgrass; [7]): 1 | Crabgrass plant response rating (crabgrass; [8]): 5 | Soybean plant response rating (soybean; [1]): 0 | Soybean plant response rating (soybean; [2]): 0 | Plant response rating, Soybean (soybean; [3]): 1 | Soybean plant response rating (soybean; [5]): 5 | Soybean plant response rating (soybean; [6]): 0 | Plant response rating, Soybean (soybean; [7]): 5 | Soybean plant response rating (soybean; [8]): 6 | Sugarbeets plant response rating (sugar beet; [1]): 5 | Sugarbeets plant response rating (sugar beet; [2]): 8 | Plant response rating, Sugarbeets (sugar beet; [3]): 8 | Sugarbeets plant response rating (sugar beet; [5]): 2 | Sugarbeets plant response rating (sugar beet; [6]): 6 | Plant response rating, Sugarbeets (sugar beet; [7]): 4 | Sugarbeets plant response rating (sugar beet; [8]): 6 | Velvetleaf plant response rating (velvetleaf; [1]): 2 | Velvetleaf plant response rating (velvetleaf; [2]): 7 | Plant response rating, Velvetleaf (velvetleaf; [3]): 8 | Velvetleaf plant response rating (velvetleaf; [5]): 0 | Velvetleaf plant response rating (velvetleaf; [6]): 4 | Plant response rating, Velvetleaf (velvetleaf; [7]): 0 | Velvetleaf plant response rating (velvetleaf; [8]): 3 | Wheat plant response rating (wheat; [1]): 0 | Wheat plant response rating (wheat; [2]): 0 | Plant response rating, Wheat (wheat; [3]): 3 | Wheat plant response rating (wheat; [5]): 0 | Wheat plant response rating (wheat; [6]): 0 | Plant response rating, Wheat (wheat; [7]): 0 | Wheat plant response rating (wheat; [8]): 0 | Wild oats plant response rating (wild oat; [1]): 2 | Wild oats plant response rating (wild oat; [2]): 6 | Plant response rating, Wild oats (wild oat; [3]): 8 | Wild oats plant response rating (wild oat; [5]): 0 | Plant response rating, Wild oats (wild oat; [7]): 0 | Wild oats plant response rating (wild oat; [8]): 3 | Nutsedge plant response rating (purple nutsedge; [1]): 0 | Nutsedge plant response rating (purple nutsedge; [2]): 0 | Plant response rating, Nutsedge (purple nutsedge; [3]): 0 | Nutsedge plant response rating (purple nutsedge; [5]): 0 | Nutsedge plant response rating (purple nutsedge; [6]): 0 | Plant response rating, Nutsedge (purple nutsedge; [7]): 0 | Nutsedge plant response rating (purple nutsedge; [8]): 0 | Rice plant response rating (rice; [9]): 0 | Rice plant response rating (rice; [10]): 0 | Rice plant response rating (rice; [11]): 0 | Rice plant response rating (rice; [12]): 0 | S. Flatsedge plant response rating (smallflower flatsedge; [9]): 0 | S. Flatsedge plant response rating (smallflower flatsedge; [10]): 0 | S. Flatsedge plant response rating (smallflower flatsedge; [11]): 0 | S. Flatsedge plant response rating (smallflower flatsedge; [12]): 0 | Ducksalad plant response rating (duck salad; [9]): 0 | Ducksalad plant response rating (duck salad; [10]): 0 | Ducksalad plant response rating (duck salad; [11]): 0 | Ducksalad plant response rating (duck salad; [12]): 0 | Barnyardgrass plant response rating (bamyardgrass; [9]): 4 | Barnyardgrass plant response rating (bamyardgrass; [10]): 3 | Barnyardgrass plant response rating (bamyardgrass; [11]): 9 | Barnyardgrass plant response rating (bamyardgrass; [12]): 9
